Laboratory results from patent US9790180B2, “Piperidine derivatives as HDAC1/2 inhibitors” (Acetylon Pharmaceuticals, Inc., priority 2014, dated 2017).
≈ marks a conversion by molar mass, not a printed value.

Experiments:
HDAC1 = HDAC1 (Homo sapiens (Human), UniProt Q13547); assay: HDAC enzyme assay, HDAC1; assay type: biochemical; settings: 24 hours pre-incubation with enzyme; read-out: IC50 (nM) HDAC1
Method: (§1) Compounds for testing were diluted in DMSO to 50 fold the final concentration and a ten point three fold dilution series was made. The compounds were diluted in assay buffer (50 mM HEPES, pH 7.4, 100 mM KCl, 0.001% Tween-20, 0.05% BSA, 20 μM tris(2-carboxyethyl)phosphine) to 6 fold their final concentration. The HDAC enzymes (purchased from BPS Biosciences) were diluted to 1.5 fold their final concentration in assay buffer and pre-incubated with the compounds for 24 hours prior to addition of the substrate.
(§2) The substrate tripeptide substrate 3 (synthesized in house) for each enzyme was equal to the Km as determined by a substrate titration curve. The substrates were diluted in assay buffer at 6× their final concentration with 0.3 μM sequencing grade trypsin (Sigma). The substrate/trypsin mix was added to the enzyme/compound mix, the plate was shaken for 60 seconds and placed into a Spectramax M5 microtiter plate reader. The development of fluorescence was monitored for 30 min and the linear rate of the reaction was calculated. The IC50 was determined using Graph Pad Prism by a four parameter curve fit. The IC50 values obtained for the compounds of this invention are found in Table 1. Examples of the curves are found in FIGS. 1 and 4.

HDAC3 = HDAC3 (Homo sapiens (Human), UniProt O15379); assay: HDAC enzyme assay, HDAC3; assay type: biochemical; settings: 24 hours pre-incubation with enzyme; read-out: IC50 (nM) HDAC3
Method: as §1, §2

[1] = tested on: fetal β-like globin (HbG, γ); assay: Fetal globin induction assay in CD34+ cells isolated from human bone marrow; assay type: cell-based
Method: CD34+ cells isolated from human bone marrow were cultured in vitro using a method described by Bradner J E (Proc Natl Acad Sci USA. 2010 Jul. 13; 107(28):12617-22), which consists of a 7 day expansion phase in media that supports differentiation of cells towards the erythroid lineage followed by a differentiation phase for 3 days where erythroid cell development continues. At the end of the differentiation period these cells are primarily late erythroblasts. mRNA levels were determined by quantitative real time PCR using primer/probe sets designed to adult major β-globin (β), adult minor β-globin (δ), fetal β-like globin (HbG, γ), and embryonic β-like globin (ε). Protein levels were determined by flow cytometry using fluorescent antibodies against fetal hemoglobin (HbF) or adult hemoglobin (HbA).
In the experiment shown in FIG. 3, cells were differentiated in the presence of vehicle (DMSO) 0.3, 1 and 3 μM of Compound A, and of 0.3, 1, and 3 μM of Compound 003. In the experiment shown in FIG. 6, cells were differentiated in the presence of vehicle (DMSO) 0.3, 1 and 3 μM of Compound A, and of 0.3, 1, and 3 μM of Compound 005. Globin mRNA levels were determined at day 3 of differentiation.

[2] = Rat cassette pharmacokinetics; assay type: in vivo; settings: male, SD, plasma
Method: Male SD rats were fasted overnight. Compounds of the invention were dissolved in dimethyl acetamide at 10 times the final concentration, then Solutol HS 15 (BASF) was added to a final concentration of 10%. Finally 80% saline was added and vortexed to achieve a clear solution. For the IV dosing three animals were injected via the foot dorsal vein with 1 mg/kg compound. For the PO dosing 5 mg/kg of compound was delivered by oral gavage. Blood was collected via the tail vein into K2EDTA tubes at 5 minutes, 15 minutes, 30 minutes, 1 hour, 2 hours, 4 hours, 8 hours and 24 hours after dosing. The blood was centrifuged at 2000 g for 5 minutes at 4° C. to obtain plasma. The plasma was extracted with acetonitrile and the level of compound was analyzed by LC/MS/MS. The level of compound in plasma was calculated from a standard curve in rat plasma. The IV clearance and area under the curve were calculated using WinNonLin software. The dose adjusted area under the curve for the IV and oral dosing were used to calculate the oral bioavailability.

hERG channel = hERG channel (Homo sapiens (Human), UniProt Q12809); assay: hERG assay (QPatch, CHO cell line expressing hERG channels); assay type: cell-based; settings: In vitro tox
Method: For hERG assays, a CHO cell line stably transfected with hERG cDNA and expressing hERG channels were seeded into a QPatch plate (Sophion) at a density of 3-8×10^6 cells/ml. The cells were voltage clamped at a holding potential of −80 mV. The hERG current was activated by depolarizing at +20 mV for 5 sec, after which the current was taken back to −50 mV for 5 sec to remove the inactivation and observe the deactivating tail current. The maximum amount of tail current size was used to determine hERG current amplitude. Six doses (30, 10, 3, 1, 0.3 and 0.1 μM) of Compound 003 were chosen to obtain fitting curves and IC50. Data were analyzed using Assay Software provided by Sophion and Graphpad Prism.

[3] = tested on: CYP1A2, CYP2C9, CYP2C19, CYP3A4, CYP2D6; assay: Cyp inhibition in human liver microsomes; assay type: in vitro ADME; settings: In vitro tox; human liver microsomes
Method: For Cyp inhibition, human live microsomes from BD Gentest were incubated with Compound 003 (10, 3.33, 1.11, 0.37, 0.12, 0.04, 0.01 μM) and substrate (CYP1A2: Phenacetin at 30 μM; CYP2C9: Diclofenac at 10 μM; CYP2C19: S-Mephenytoin at 35 μM; CYP3A4: Midazolam at 5 μM and Testosterone at 80 μM; CYP2D6: Bufuralol at 10 μM) for the following incubation times: CYP1A2, 2C9, 2D6: 10 minutes, 37° C.; CYP2C19: 45 minutes, 37° C.; CYP3A4: 5 minutes, 37° C. Substrate conversion was measured by liquid chromatography/mass spectrometry/mass spectrometry (LC/MS/MS). Inhibition was calculated by curve fitting in Graph Pad Prism.

[4] = tested on: human peripheral blood lymphocytes (HPBL); assay: Micronucleus formation assay; assay type: cell-based; settings: In vitro tox
Method: Genotoxicity was further evaluated by micronucleus formation assay in human peripheral blood lymphocytes (HPBL). HPBL were obtained from healthy donors and exposed to Compound 003 at […] for 4 hours with or without S9 activation. The cells were washed with PBS and incubated in complete medium with 6 μg/ml cytocholasin B for 24 hours. The cells were then lysed, fixed, and mounted on microscope slides. The number of mononucleated, binucleated, and micronucleated cells was counted under blinded conditions.

Solubility = assay type: physicochemical
[5] = rat cassette dosing, 5 mg/kg PO

hERG channel, sequence (Q12809 whole entry): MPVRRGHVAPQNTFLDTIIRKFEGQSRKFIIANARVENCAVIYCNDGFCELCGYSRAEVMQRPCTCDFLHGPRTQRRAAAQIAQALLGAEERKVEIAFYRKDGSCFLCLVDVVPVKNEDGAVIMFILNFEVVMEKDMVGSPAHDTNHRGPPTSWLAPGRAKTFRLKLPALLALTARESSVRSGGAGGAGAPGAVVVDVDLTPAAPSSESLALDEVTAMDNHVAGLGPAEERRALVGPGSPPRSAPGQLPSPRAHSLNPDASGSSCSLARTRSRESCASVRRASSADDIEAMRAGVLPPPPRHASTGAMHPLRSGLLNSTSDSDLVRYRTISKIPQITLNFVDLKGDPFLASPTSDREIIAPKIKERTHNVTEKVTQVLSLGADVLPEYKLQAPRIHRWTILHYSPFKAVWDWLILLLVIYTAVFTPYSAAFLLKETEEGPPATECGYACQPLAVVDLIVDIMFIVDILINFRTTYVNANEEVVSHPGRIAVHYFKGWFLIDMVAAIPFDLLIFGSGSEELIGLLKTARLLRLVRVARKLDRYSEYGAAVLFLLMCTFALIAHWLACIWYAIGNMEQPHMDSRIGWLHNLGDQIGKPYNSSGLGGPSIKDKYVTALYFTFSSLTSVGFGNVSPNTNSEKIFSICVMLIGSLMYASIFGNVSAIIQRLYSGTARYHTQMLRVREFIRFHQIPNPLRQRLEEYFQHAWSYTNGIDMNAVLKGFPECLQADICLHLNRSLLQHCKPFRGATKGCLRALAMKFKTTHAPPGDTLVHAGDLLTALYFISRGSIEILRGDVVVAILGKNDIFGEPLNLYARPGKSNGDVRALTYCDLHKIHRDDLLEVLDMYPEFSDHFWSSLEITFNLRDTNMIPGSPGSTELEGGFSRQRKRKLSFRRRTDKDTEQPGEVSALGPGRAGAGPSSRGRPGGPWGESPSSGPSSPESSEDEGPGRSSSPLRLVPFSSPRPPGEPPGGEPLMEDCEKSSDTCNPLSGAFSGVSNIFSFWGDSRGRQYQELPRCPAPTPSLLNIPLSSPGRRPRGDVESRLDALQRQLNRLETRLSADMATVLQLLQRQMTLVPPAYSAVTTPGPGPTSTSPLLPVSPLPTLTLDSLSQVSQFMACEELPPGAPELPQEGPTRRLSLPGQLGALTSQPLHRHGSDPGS
HDAC3, sequence (O15379 whole entry): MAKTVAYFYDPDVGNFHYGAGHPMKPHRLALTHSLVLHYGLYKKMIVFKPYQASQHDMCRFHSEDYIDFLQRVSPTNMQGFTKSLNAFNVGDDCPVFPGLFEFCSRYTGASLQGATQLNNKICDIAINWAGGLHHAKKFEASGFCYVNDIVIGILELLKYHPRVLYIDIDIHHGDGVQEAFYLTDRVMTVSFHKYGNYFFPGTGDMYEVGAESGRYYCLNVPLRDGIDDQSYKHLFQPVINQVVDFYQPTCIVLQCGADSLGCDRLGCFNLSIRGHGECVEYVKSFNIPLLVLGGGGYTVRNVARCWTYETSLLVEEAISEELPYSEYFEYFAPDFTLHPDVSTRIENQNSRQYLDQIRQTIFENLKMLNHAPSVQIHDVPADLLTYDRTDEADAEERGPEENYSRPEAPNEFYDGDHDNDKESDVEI
HDAC3, sequence (Q9Y618 395-489 partner): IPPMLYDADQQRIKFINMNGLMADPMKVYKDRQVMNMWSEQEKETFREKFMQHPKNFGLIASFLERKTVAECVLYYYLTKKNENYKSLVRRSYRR
HDAC1, sequence (Q13547 whole entry): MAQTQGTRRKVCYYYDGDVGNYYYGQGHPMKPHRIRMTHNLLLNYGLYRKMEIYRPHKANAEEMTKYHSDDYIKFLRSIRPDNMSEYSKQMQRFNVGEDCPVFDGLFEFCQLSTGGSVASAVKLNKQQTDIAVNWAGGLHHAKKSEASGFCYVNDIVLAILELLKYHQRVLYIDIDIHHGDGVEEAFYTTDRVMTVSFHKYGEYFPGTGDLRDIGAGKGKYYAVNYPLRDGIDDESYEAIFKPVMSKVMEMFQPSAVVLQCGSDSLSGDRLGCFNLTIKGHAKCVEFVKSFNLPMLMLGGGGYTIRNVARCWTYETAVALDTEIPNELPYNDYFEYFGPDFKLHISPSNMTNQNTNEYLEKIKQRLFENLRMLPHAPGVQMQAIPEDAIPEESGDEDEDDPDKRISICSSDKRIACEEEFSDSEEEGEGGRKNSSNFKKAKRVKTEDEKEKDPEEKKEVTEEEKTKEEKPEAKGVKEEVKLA

With CN1CCN(C(=O)N2CCC(Nc3ccc(C(=O)Nc4cc(-c5cccs5)ccc4N)cc3)CC2)CC1 [Compound 005] the IC50 (HDAC1) was 1.2 nM, the IC50 (HDAC3) was 82 nM and the “Cell based assay potency” value ([1]; lowest concentration to achieve a 2 fold increase in fetal globin gene expression over baseline) was 1000 nM. For the same compound, the “induction of % HbG” value ([1]; primary erythroid progenitors, 3 days differentiation (FIG. 6)) was “equivalent dose and time-dependent induction”, the bioavailability ([2]; 5 mg/kg, rat, oral AUC to IV AUC, dose adjusted) was 79% and the AUC [2, 5] was 9160 ng·h/mL. It also gave a Cmax [2, 5] of 569 ng/mL, a half-life ([2]; rat cassette dosing, 5 mg/kg PO, read-out: PO T½ (converted)) greater than 24 h and a CL renal ([2]; rat cassette dosing, IV 1 mg/kg, read-out: IV Clr. (converted)) of 6.33 mL/min/kg. For the same compound, the hERG (hERG channel) was 13.8 µM, the Cyp [3] was greater than 10 µM and the MN [4] was “Neg”. For the same compound, the solubility (Solubility) was 13.8 µM (≈ 7.16 µg/mL).
